Experimental data taken from PubChem BioAssay AID651974 (The Scripps Research Institute Molecular Screening Center, 2013).
Activity calls are given as the source filed them. How the calls were made is not given here.

experiment: GAL4-VP16 transactivation reporter inhibitors, late-stage follow-up, counter-screen for LRH-1 inverse agonist project, cell-based, luminescence, dose response (AID 651974); settings: HEK293 cells transfected with Gal4-VP16 and pGL4.31 luciferase reporter

Structure (SMILES) | IC50
O=C(COC(=O)CCN1C(=O)C2CC=CCC2C1=O)NCCc1ccc(F)cc1 (stereo not given) | > 35.9 µM (inactive)
COc1ccc(CCNC(=O)CSc2nn3c(=O)c(C)nnc3s2)cc1OC | > 35.9 µM (inactive)
Cc1ccc(NC(=O)CSc2sc3c(O)cc(=O)[nH]c3c2C#N)c(F)c1 | > 35.9 µM (inactive)
O=C(CN1C(=O)CCC1=O)Nc1ccc(Br)cc1 | > 35.9 µM (inactive)
COCCn1c(C)cc(/C=C(\C#N)C(=O)OCC(=O)Nc2ccc(S(N)(=O)=O)cc2)c1C | > 35.9 µM (inactive)
COc1ccc(NC(=O)CSc2nc(N)c(-c3ccccc3)c(=O)[nH]2)cc1 | > 35.9 µM (inactive)
Cc1ccc(NC(=O)COC(=O)c2cc(=O)c3ccccc3o2)c(Br)c1 | > 35.9 µM (inactive)
COC(=O)c1ccc(NC(=O)CSc2nc3ncccc3[nH]2)cc1 | > 35.9 µM (inactive)
Cc1cc(Br)ccc1NC(=O)CN1C(=O)CCC1=O | > 35.9 µM (inactive)
COc1ccc(NC(=O)COC(=O)c2c(-c3ccccc3)noc2C)cc1 | > 35.9 µM (inactive)
Cc1cc(Br)ccc1NC(=O)CN1C(=O)C2CC=CCC2C1=O (stereo not given) | > 35.9 µM (inactive)
CC(=O)Nc1ncc(Cc2cc(Cl)ccc2Cl)s1 | > 35.9 µM (inactive)
CCCc1cc(=O)oc2cc(C)cc(OCC(=O)NC3CC3)c12 | > 35.9 µM (inactive)
CN1CCN(c2ccc(S(=O)(=O)N3CCCCC3)cc2NC(=O)COc2ccc([N+](=O)[O-])cc2)CC1 | > 35.9 µM (inactive)
N#CCSc1ccccc1NC(=O)CN1C(=O)C2CC=CCC2C1=O (stereo not given) | > 35.9 µM (inactive)
CCCc1cc(=O)oc2cc(OCC(=O)NCc3ccccn3)ccc12 | > 35.9 µM (inactive)
CCCc1cc(=O)oc2c(C)c(OCC(=O)NC3CC(C)(C)NC(C)(C)C3)ccc12 | > 35.9 µM (inactive)
CCCN(CC(=O)Nc1ccc(C(C)=O)cc1)CC(=O)Nc1ccccc1C | > 35.9 µM (inactive)
CCOc1ccc(OCCN2C(=O)NC(Cc3c[nH]c4ccccc34)C2=O)cc1 (stereo not given) | > 35.9 µM (inactive)
CCOc1ccc(NC(=O)COC(=O)CC2CCCCC2)cc1 | > 35.9 µM (inactive)
O=C(COC(=O)c1ccc[n+]([O-])c1)Nc1ccc([N+](=O)[O-])cc1Cl | > 35.9 µM (inactive)
O=C1CCCN2N=C(SCC(=O)Nc3ccc(Br)cc3)SC2=N1 | > 35.9 µM (inactive)
COc1ccc(NC(=O)CN2C(=O)NC3(CCCC3)C2=O)cc1 | > 35.9 µM (inactive)
Cc1cc(Br)ccc1NC(=O)CSc1nnc(CN2CCOCC2)n1C | > 35.9 µM (inactive)

Structure (SMILES) | IC50
Cc1cccc(NC(=O)COC(=O)CN2C(=O)c3ccccc3C2=O)c1C | > 35.9 µM (inactive)
Cc1ccn2c(=O)nc(SCC(=O)Nc3ccc4c(c3)OCCO4)nc2c1 | > 35.9 µM (inactive)
CC1SC(C)C(=O)N(CC(=O)Nc2ccc3c(c2)OCO3)C1=O (stereo not given) | > 35.9 µM (inactive)
Cc1ccc2cccc(OCC(=O)NCCC3=CCCCC3)c2n1 | > 35.9 µM (inactive)
Cc1ccc(-c2csc(NC(=O)c3ccc([N+](=O)[O-])o3)n2)cc1 | > 35.9 µM (inactive)
CCOc1ccc(NC(=O)CSc2nncc(=O)n2N)cc1 | > 35.9 µM (inactive)
CC(C)CC1(C)NC(=O)N(CC(=O)Nc2ccc3c(c2)OCCO3)C1=O (stereo not given) | > 35.9 µM (inactive)
COc1ccc(NC(=O)CSc2nnc3ccc(-c4cccnc4)nn23)cc1OC | > 35.9 µM (inactive)
COc1ccc(CCNC(=O)COC(=O)c2cc(Cl)nc(Cl)c2)cc1 | > 35.9 µM (inactive)
O=C(Nc1ccc(Br)cn1)c1ccc([N+](=O)[O-])o1 | > 35.9 µM (inactive)
NC(=O)C1CCN(C(=O)COc2ccc3c4c(c(=O)oc3c2)CCCC4)CC1 | > 35.9 µM (inactive)
O=C(NCC1CCCO1)c1ccc(NC(=O)c2cccc([N+](=O)[O-])c2)cc1 (stereo not given) | > 35.9 µM (inactive)
COc1ccc(NS(=O)(=O)c2ccc(OCC(=O)N3CCN(C)CC3)cc2)cc1Cl | > 35.9 µM (inactive)
O=C(COC(=O)c1ccc(=O)n(Cc2ccccc2)n1)Nc1ccc2c(c1)OCCO2 | > 35.9 µM (inactive)
COc1ccc(CCNC(=O)CSc2nc3[nH]c(=O)cc(O)c3s2)cc1 | > 35.9 µM (inactive)
COc1ccc(NC(=O)COC(=O)c2cc(S(=O)(=O)N3CCCC3)ccc2O)cc1 | > 35.9 µM (inactive)
CCOc1ccc(NC(=O)CN2CCN(CC(=O)Nc3ccc(OC)cc3)CC2)cc1 | > 35.9 µM (inactive)
O=C(OCC(=O)N1CCN(C(=O)COC(=O)c2ccc(O)cc2O)CC1)c1ccc(O)cc1O | > 35.9 µM (inactive)
COc1ccc(CC(NC(C)=O)C(=O)NC2CCN(c3nnnn3-c3ccccc3)CC2)cc1 (stereo not given) | > 35.9 µM (inactive)
CCCc1cc(=O)oc2c(C)c(OCC(=O)NCCN3CCOCC3)ccc12 | > 35.9 µM (inactive)
Cc1ccc(NC(=O)COC(=O)C(NS(=O)(=O)c2ccc(Cl)cc2)C(C)O)c(Br)c1 (stereo not given) | > 35.9 µM (inactive)
CCOc1ccc(OCCC(=O)OCC(=O)Nc2ccc3c(c2)OCCO3)cc1 | > 35.9 µM (inactive)
O=C(COc1ccc2c3c(c(=O)oc2c1)CCCC3)NCc1ccccn1 | > 35.9 µM (inactive)
O=C(COC(=O)c1ccc(Br)cc1)Nc1ccccc1Br | > 35.9 µM (inactive)

Structure (SMILES) | IC50
Cc1ccc(NC(=O)COC(=O)C(NS(=O)(=O)c2ccc(Cl)cc2)C(C)O)cc1C (stereo not given) | > 35.9 µM (inactive)
COC(=O)c1ccc(NC(=O)COc2cccc(-n3cnnn3)c2)cc1 | > 35.9 µM (inactive)
CCCc1cc(=O)oc2c(C)c(OCC(=O)NCCCn3ccnc3)ccc12 | > 35.9 µM (inactive)
CC(=O)c1ccc(NC(=O)C(C)O/N=C(\N)c2ccccc2)cc1 (stereo not given) | > 35.9 µM (inactive)
COc1ccc(NC(=O)CSc2sc3c(O)cc(=O)[nH]c3c2C#N)c(OC)c1 | > 35.9 µM (inactive)
COc1ccc(NC(=O)CSc2ccc3c(c2)OCCO3)cc1 | > 35.9 µM (inactive)
Cc1cc(OCC(=O)Nc2nccs2)c2c(C)cc(=O)oc2c1 | > 35.9 µM (inactive)
O=C(COc1ccc2c3c(c(=O)oc2c1)CCC3)NCc1ccncc1 | > 35.9 µM (inactive)
Cc1ccc(NC(=O)CSc2nc3[nH]c(=O)cc(O)c3s2)c(Br)c1 | > 35.9 µM (inactive)
CC(=O)c1ccc(OC(C)C(=O)OCC(=O)NCCc2ccccc2)cc1 (stereo not given) | > 35.9 µM (inactive)
CCCc1nnc(SCC(=O)Nc2ccc(C(=O)OCC)cc2)o1 | > 35.9 µM (inactive)
COc1ccc(NC(=O)CS(=O)(=O)c2ccc(C)cc2)c(OC)c1 | > 35.9 µM (inactive)
CCCc1cc(=O)oc2cc(OCC(=O)NCCc3ccc(S(N)(=O)=O)cc3)ccc12 | > 35.9 µM (inactive)
CCOc1ccc(NC(=O)COC(=O)c2ccc3c(c2)OCCO3)cc1 | > 35.9 µM (inactive)
O=c1[nH]c(Nc2ccc3c(c2)OCCO3)nnc1Cc1ccccc1 | > 35.9 µM (inactive)
CCOc1ccc(NC(=O)CSc2nnc(C(C)C)n2CC)cc1 | > 35.9 µM (inactive)
CCc1c(C)nc(SCC(=O)Nc2ccc3c(c2)OCCO3)[nH]c1=O | > 35.9 µM (inactive)
Cc1nn(CC(=O)Nc2ccc3c(c2)OCCO3)c(C)c1[N+](=O)[O-] | > 35.9 µM (inactive)
CCc1cc(=O)oc2c(C)c(OCC(=O)NCCN3CCOCC3)ccc12 | > 35.9 µM (inactive)
COC(=O)c1ccc(NC(=O)CSc2nn3c(=O)c(C)nnc3s2)cc1 | > 35.9 µM (inactive)
COc1ccc(CCNC(=O)COC(=O)c2cccn2C)cc1 | > 35.9 µM (inactive)
COCC(=O)NC1CCN(CC(=O)Nc2ccc(OC)cc2[N+](=O)[O-])CC1 | > 35.9 µM (inactive)
O=C(CSc1nc(=O)n2cc(Cl)ccc2n1)Nc1ccc2c(c1)OCCO2 | > 35.9 µM (inactive)
O=C(Nc1nc2c(Cl)cccc2s1)c1ccc([N+](=O)[O-])o1 | > 35.9 µM (inactive)

Structure (SMILES) | IC50
CCc1cc(=O)[nH]c(SCC(=O)Nc2ccc3c(c2)OCCO3)n1 | > 35.9 µM (inactive)
COc1ccc(-n2c(N)c(C(=O)NCc3cccnc3)sc2=S)cc1 | > 35.9 µM (inactive)
COC(=O)c1ccc(CNC(=O)COC(=O)c2cc(Cl)nc(Cl)c2)cc1 | > 35.9 µM (inactive)
Cc1cc(C)c2sc(NC(=O)c3ccc([N+](=O)[O-])o3)nc2c1 | > 35.9 µM (inactive)
Cc1sc(NC(=O)C(C)C)c(C(=O)Nc2ccccc2)c1C | > 35.9 µM (inactive)
COc1ccc(CCNC(=O)COC(=O)C23CC4CC(CC(C4)C2)C3)cc1 | > 35.9 µM (inactive)
CCOc1ccc(NC(=O)CSc2nccn(-c3ccc4c(c3)OCCO4)c2=O)cc1 | > 35.9 µM (inactive)
O=C(CSc1nnc(CNC(=O)c2c(F)cccc2F)o1)Nc1ccc2c(c1)OCCO2 | > 35.9 µM (inactive)
Cc1cccc(NC(=O)COC(=O)Cc2cccs2)c1C | > 35.9 µM (inactive)
CCn1c(SCC(=O)Nc2ccc(Cl)cc2)nnc1C1CC1 | > 35.9 µM (inactive)
O=C(CSc1nnc(CNC(=O)c2ccccc2F)o1)Nc1ccc2c(c1)OCCO2 | > 35.9 µM (inactive)
O=C(Nc1ccc(S(=O)(=O)N2CCOCC2)cc1)c1cccc([N+](=O)[O-])c1 | > 35.9 µM (inactive)
Cc1cc(=O)oc2c(C)c(OCC(=O)NC3CC(C)(C)NC(C)(C)C3)ccc12 | > 35.9 µM (inactive)
COc1ccc(C2(C)NC(=O)N(CC(=O)NCCC3=CCCCC3)C2=O)cc1OC (stereo not given) | > 35.9 µM (inactive)
CCOc1ccc(NC(=O)CSc2nc3[nH]ncc3c(=O)[nH]2)cc1 | > 35.9 µM (inactive)
Cc1cc(C)c2nc(NC(=O)c3ccc([N+](=O)[O-])o3)sc2c1 | > 35.9 µM (inactive)
COC(=O)c1ccc(NC(=O)CN2CCN(c3ccc(Cl)cc3)CC2)cc1 | > 35.9 µM (inactive)
O=C(NCc1ccco1)c1nn(-c2ccccc2)c(=O)c2ccccc12 | > 35.9 µM (inactive)
CCOc1ccc(NC(=O)COC(=O)COc2cccc3c2OC(C)(C)C3)cc1 | > 35.9 µM (inactive)
COC(=O)c1ccc(NC(=O)CSc2nncn2-c2cccnc2)cc1 | > 35.9 µM (inactive)
COC(=O)c1ccc(NC(=O)CSc2ccc(-c3ccccn3)nn2)cc1 | > 35.9 µM (inactive)
COc1ccc(CCNC(=O)COC(=O)Cc2ccccc2[N+](=O)[O-])cc1 | > 35.9 µM (inactive)
COc1ccccc1Oc1nnnn1-c1ccc(C(N)=O)cc1 | > 35.9 µM (inactive)
